Experimental data reported in ChEMBL document CHEMBL1201862, “PubChem BioAssay data set” (2004).
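Five concentrations, 48 hours, 96-well plates. GI50 is the concentration that inhibits growth by half.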 The source made the active and inactive calls. No stated cut-off is given here; in the data, active = GI50 up to about 1.1 µM and inactive = higher.

Tests used:
Experiment in all cases: growth of human tumour cells (NCI), 48 h
NCI-H460 = system: NCI-H460
UO-31 = system: UO-31
LOX IMVI = system: LOX IMVI
NCI-H522 = system: NCI-H522
KM12 = system: KM12
HL-60 = system: HL-60
ACHN = system: ACHN
MOLT-4 = system: MOLT-4
UACC-257 = system: UACC-257
SK-MEL-5 = system: SK-MEL-5
RXF 393 = system: RXF 393
HT-29 = system: HT-29
SK-OV-3 = system: SK-OV-3
Malme-3M = system: Malme-3M
HCT-116 = system: HCT-116
PC-3 = system: PC-3
Hs-578T = system: Hs-578T
DU-145 = system: DU-145
T47D = system: T47D

Measured: GI50

CN(/N=C/c1ccnc2ccccc12)c1ccc([N+](=O)[O-])cc1[N+](=O)[O-]
inactive: NCI-H460 > 100 µM | UO-31 > 100 µM | LOX IMVI 81.7 µM | NCI-H522 > 100 µM | KM12 > 100 µM | HL-60 > 100 µM | ACHN > 100 µM | MOLT-4 > 100 µM | UACC-257 > 100 µM | SK-MEL-5 > 100 µM | RXF 393 41.8 µM | HT-29 > 100 µM | SK-OV-3 47.5 µM | Malme-3M 61 µM

O=C(O)CSc1nnc(-c2ccccc2)[nH]1
inactive: NCI-H460 > 100 µM | UO-31 > 100 µM | LOX IMVI > 100 µM | NCI-H522 > 100 µM | KM12 > 100 µM | HL-60 > 100 µM | ACHN > 100 µM | MOLT-4 > 100 µM | SK-MEL-5 > 100 µM | RXF 393 > 100 µM | HT-29 > 100 µM | SK-OV-3 > 100 µM | Malme-3M > 100 µM

CC(C)(C)OC(=O)Cc1ccc2c(ccn2Cc2ccccc2)c1
inactive: NCI-H460 68.2 µM | UO-31 37.9 µM | LOX IMVI 47.4 µM | NCI-H522 44.2 µM | KM12 64.3 µM | HL-60 28.2 µM | ACHN > 100 µM | MOLT-4 18 µM | UACC-257 39.9 µM | SK-MEL-5 31.4 µM | RXF 393 37.1 µM | HT-29 17.2 µM | SK-OV-3 > 100 µM | Malme-3M > 100 µM | HCT-116 25.2 µM

Cl.O=C(O)c1cccnc1
inactive: NCI-H460 > 100 µM | PC-3 > 100 µM | UO-31 > 100 µM | LOX IMVI > 100 µM | NCI-H522 > 100 µM | KM12 > 100 µM | Hs-578T > 100 µM | HL-60 > 100 µM | ACHN > 100 µM | MOLT-4 > 100 µM | UACC-257 > 100 µM | SK-MEL-5 > 100 µM | HT-29 > 100 µM | DU-145 > 100 µM | Malme-3M > 100 µM | T47D > 100 µM | HCT-116 > 100 µM

Oc1nc(S)nc2c1CCCN2
inactive: UO-31 > 100 µM | LOX IMVI > 100 µM | NCI-H522 > 100 µM | KM12 > 100 µM | HL-60 > 100 µM | ACHN > 100 µM | MOLT-4 > 100 µM | UACC-257 > 100 µM | SK-MEL-5 > 100 µM | RXF 393 > 100 µM | HT-29 > 100 µM | SK-OV-3 > 100 µM | Malme-3M > 100 µM | HCT-116 > 100 µM

O=C(/C=C/c1ccccc1O)c1cccnc1
inactive: NCI-H460 > 100 µM | UO-31 > 100 µM | LOX IMVI > 100 µM | NCI-H522 > 100 µM | KM12 > 100 µM | HL-60 > 100 µM | ACHN > 100 µM | MOLT-4 > 100 µM | UACC-257 > 100 µM | SK-MEL-5 > 100 µM | RXF 393 > 100 µM | HT-29 > 100 µM | SK-OV-3 > 100 µM | Malme-3M > 100 µM | HCT-116 > 100 µM

C1CC2=C(C1)C1=S(S2)SC2=C1CCC2
inactive: NCI-H460 > 100 µM | UO-31 > 100 µM | LOX IMVI > 100 µM | NCI-H522 > 100 µM | KM12 > 100 µM | HL-60 > 100 µM | ACHN 45.7 µM | MOLT-4 > 100 µM | UACC-257 > 100 µM | SK-MEL-5 > 100 µM | RXF 393 > 100 µM | HT-29 > 100 µM | SK-OV-3 > 100 µM | Malme-3M > 100 µM | HCT-116 > 100 µM

C1OCC2S[C@@H]3COCO[C@@H]3C2O1 (some centres undefined)
inactive: NCI-H460 > 100 µM | UO-31 > 100 µM | LOX IMVI > 100 µM | NCI-H522 > 100 µM | KM12 > 100 µM | HL-60 > 100 µM | ACHN > 100 µM | MOLT-4 > 100 µM | UACC-257 > 100 µM | SK-MEL-5 > 100 µM | RXF 393 > 100 µM | HT-29 > 100 µM | SK-OV-3 > 100 µM | Malme-3M > 100 µM | HCT-116 > 100 µM

CN(C(=O)C1CC1)C1C2CN3CCC(O2)C13 (centres undefined)
inactive: NCI-H460 > 100 µM | UO-31 > 100 µM | LOX IMVI > 100 µM | NCI-H522 > 100 µM | KM12 > 100 µM | HL-60 > 100 µM | ACHN > 100 µM | MOLT-4 > 100 µM | UACC-257 > 100 µM | SK-MEL-5 > 100 µM | RXF 393 > 100 µM | HT-29 > 100 µM | SK-OV-3 > 100 µM | Malme-3M > 100 µM | HCT-116 > 100 µM

COC(=O)C1C=NNC1C(=O)OC (centres undefined)
inactive: NCI-H460 > 100 µM | UO-31 > 100 µM | LOX IMVI > 100 µM | NCI-H522 > 100 µM | KM12 > 100 µM | HL-60 > 100 µM | ACHN > 100 µM | MOLT-4 > 100 µM | UACC-257 > 100 µM | SK-MEL-5 > 100 µM | RXF 393 > 100 µM | HT-29 > 100 µM | SK-OV-3 > 100 µM | Malme-3M > 100 µM | HCT-116 > 100 µM

CCOC(=O)c1c(C(F)(F)F)oc2c1ccc1nc3nonc3nc12
inactive: NCI-H460 23.3 µM | UO-31 19.2 µM | LOX IMVI 16.2 µM | NCI-H522 15.1 µM | KM12 19.3 µM | HL-60 4.46 µM | ACHN 15.3 µM | MOLT-4 2.54 µM | UACC-257 13.5 µM | SK-MEL-5 13.4 µM | RXF 393 11.9 µM | HT-29 15.5 µM | SK-OV-3 20.1 µM | Malme-3M 17 µM | HCT-116 17 µM

CC(=O)/C=C/c1ccc(C)cc1
inactive: NCI-H460 > 100 µM | UO-31 > 100 µM | LOX IMVI > 100 µM | NCI-H522 > 100 µM | KM12 > 100 µM | HL-60 > 100 µM | ACHN > 100 µM | MOLT-4 > 100 µM | UACC-257 > 100 µM | SK-MEL-5 > 100 µM | RXF 393 > 100 µM | HT-29 > 100 µM | SK-OV-3 > 100 µM | Malme-3M > 100 µM | HCT-116 > 100 µM

CC1(O)Oc2ccc3ccccc3c2C=C1C(N)=O (centres undefined)
inactive: NCI-H460 61.1 µM | PC-3 64.9 µM | UO-31 > 100 µM | LOX IMVI > 100 µM | KM12 > 100 µM | Hs-578T > 100 µM | HL-60 > 100 µM | ACHN > 100 µM | MOLT-4 18.6 µM | UACC-257 > 100 µM | SK-MEL-5 58.6 µM | RXF 393 49.2 µM | DU-145 > 100 µM | SK-OV-3 > 100 µM | T47D 36.6 µM | HCT-116 > 100 µM
